Data: ChEMBL document CHEMBL1126053, “4-Amido-2-carboxytetrahydroquinolines. Structure-activity relationships for antagonism at the glycine site of the NMDA receptor” (J Med Chem, 1992)

What follows are compounds tested against T1, Glutamate receptor ionotropic, NMDA 1 (Rattus norvegicus, UniProt P35439) (assay: Inhibition of [3H]- glycine binding to N-methyl-D-aspartate glutamate receptor from rat cortical membranes).
Assay type: cell membranes, Membrane

O=C(Nc1cccc2ccccc12)N[C@H]1C[C@H](C(=O)O)Nc2cc(Cl)cc(Cl)c21 showed an IC50 of 0.011 µM.

Each compound was assayed against T1, Glutamate receptor ionotropic, NMDA 1 (assay: Inhibition of [3H]- glycine binding to NMDA receptor from rat cortical membranes.).
Assay type: cell membranes, Membrane

First: O=C(O)[C@H]1CCc2c(Cl)cc(Cl)cc2N1
Second: N[C@H]1C[C@H](C(=O)O)Nc2cc(Cl)cc(Cl)c21
The IC50 of the first is 1.8-fold lower: 6.4 µM for the first, 11.3 µM for the second. The first is the more potent here.

Compared with O=C(NCc1ccccc1)N[C@H]1C[C@H](C(=O)O)Nc2cc(Cl)cc(Cl)c21, O=C(Cc1ccccc1)N[C@H]1C[C@H](C(=O)O)Nc2cc(Cl)cc(Cl)c21 (stereo in doubt; 15) is 2.7-fold lower in IC50: 0.03 µM for the first, 0.011 µM for the second.

First: O=C(O)[C@H]1C[C@H](NS(=O)(=O)c2ccccc2)c2c(Cl)cc(Cl)cc2N1
Second: O=C(N[C@H]1C[C@H](C(=O)O)Nc2cc(Cl)cc(Cl)c21)c1ccccc1
The IC50 of the first is 52-fold higher: 5.2 µM for the first, 0.1 µM for the second. The second is the more potent here.

First: O=C(N[C@H]1C[C@H](C(=O)O)Nc2cc(Cl)cc(Cl)c21)C(c1ccccc1)c1ccccc1
Second: O=C(O)[C@H]1C[C@H](NC(=O)N(c2ccccc2)c2ccccc2)c2c(Cl)cc(Cl)cc2N1
The IC50 of the first is 3.2-fold higher: 0.061 µM for the first, 0.019 µM for the second. The second is the more potent here.

First: N[C@@H](Cc1ccccc1)C(=O)N[C@H]1C[C@H](C(=O)O)Nc2cc(Cl)cc(Cl)c21
Second: N[C@H](Cc1ccccc1)C(=O)N[C@H]1C[C@H](C(=O)O)Nc2cc(Cl)cc(Cl)c21
The IC50 of the first is 6.7-fold lower: 1.05 µM for the first, 7 µM for the second.

Going from O=C(N[C@H]1C[C@H](C(=O)O)Nc2cc(Cl)cc(Cl)c21)OCc1ccccc1 to O=C(Cc1ccccc1)N[C@H]1C[C@H](C(=O)O)Nc2cc(Cl)cc(Cl)c21 (stereo in doubt; 14), the IC50 falls from 0.079 µM to 0.014 µM (5.6-fold). The second is the more potent here.

Going from O=C(N[C@H]1C[C@H](C(=O)O)Nc2cc(Cl)cc(Cl)c21)C1c2ccccc2-c2ccccc21 to O=C(N[C@@H]1C[C@H](C(=O)O)Nc2cc(Cl)cc(Cl)c21)c1ccccc1, the IC50 rises from 0.025 µM to 8.3 µM (330-fold). The first is the more potent here.

Going from O=C(O)[C@H]1C[C@H](N2Cc3ccccc3C2=O)c2c(Cl)cc(Cl)cc2N1 to O=C(O)[C@H]1C[C@H](N2Cc3ccccc3NC2=O)c2c(Cl)cc(Cl)cc2N1, the IC50 rises from 0.027 µM to 0.51 µM (19-fold).

Compared with CC(C)(C)OC(=O)N[C@H]1C[C@H](C(=O)O)Nc2cc(Cl)cc(Cl)c21, CC(C)(C)OC(=O)N[C@@H]1C[C@H](C(=O)O)Nc2cc(Cl)cc(Cl)c21 is 12-fold higher in IC50: 0.94 µM for the first, 11.4 µM for the second.

Going from O=C(O)[C@H]1C[C@H](N2CCN(c3ccccc3)C2=O)c2c(Cl)cc(Cl)cc2N1 to O=C(O)[C@H]1C[C@H](N2Cc3ccccc3CC2=O)c2c(Cl)cc(Cl)cc2N1, the IC50 rises from 0.006 µM to 0.072 µM (12-fold).

Going from O=C(NCc1ccccc1)[C@H]1C[C@H](C(=O)O)Nc2cc(Cl)cc(Cl)c21 to O=C(O)[C@H]1C[C@H](NCc2ccccc2)c2c(Cl)cc(Cl)cc2N1, the IC50 rises from 1.7 µM to 10.7 µM (6.3-fold).

Compared with O=C(O)[C@H]1C[C@H](NC(=S)Nc2ccccc2)c2c(Cl)cc(Cl)cc2N1, O=C(Nc1ccccc1)N[C@H]1C[C@H](C(=O)O)Nc2cc(Cl)cc(Cl)c21 is 12-fold lower in IC50: 0.09 µM for the first, 0.0074 µM for the second. The second is the more potent here.

First: O=C(N[C@H]1C[C@H](C(=O)O)Nc2cc(Cl)cc(Cl)c21)c1ccco1
Second: O=C(N[C@H]1C[C@H](C(=O)O)Nc2cc(Cl)cc(Cl)c21)c1ccncc1
The IC50 of the first is 4.2-fold lower: 0.15 µM for the first, 0.63 µM for the second.

Compared with Cc1cc(C)c2c(c1)N[C@@H](C(=O)O)C[C@@H]2NC(=O)Cc1ccccc1, O=C(Cc1ccccc1)N[C@H]1C[C@H](C(=O)O)Nc2cc(I)cc(Cl)c21 is 1.6-fold lower in IC50: 0.067 µM for the first, 0.042 µM for the second.

First: O=C(Nc1ccccc1)N[C@H]1C[C@H](C(=O)O)Nc2cc(Cl)cc(I)c21
Second: O=C(Cc1ccccc1)N[C@H]1C[C@H](C(=O)O)Nc2cc(Cl)cc(I)c21
The IC50 of the first is 1.7-fold lower: 0.006 µM for the first, 0.01 µM for the second.

Compared with CCCC(=O)N[C@H]1C[C@H](C(=O)O)Nc2cc(Cl)cc(Cl)c21, CC(=O)N[C@H]1C[C@H](C(=O)O)Nc2cc(Cl)cc(Cl)c21 is 2.4-fold higher in IC50: 0.37 µM for the first, 0.9 µM for the second. The first is the more potent here.

Going from O=C(CCc1ccccc1)N[C@H]1C[C@H](C(=O)O)Nc2cc(Cl)cc(Cl)c21 to O=C(CCCc1ccccc1)N[C@H]1C[C@H](C(=O)O)Nc2cc(Cl)cc(Cl)c21, the IC50 rises from 0.076 µM to 0.17 µM (2.2-fold). The first is the more potent here.

Going from O=C(C[C@H]1C[C@H](C(=O)O)Nc2cc(Cl)cc(Cl)c21)Nc1ccccc1 to O=C(CN[C@H]1C[C@H](C(=O)O)Nc2cc(Cl)cc(Cl)c21)Nc1ccccc1, the IC50 rises from 0.03 µM to 0.42 µM (14-fold). The first is the more potent here.

Going from Nc1ccc(CC(=O)N[C@H]2C[C@H](C(=O)O)Nc3cc(Cl)cc(Cl)c32)cc1 to O=C(Cc1ccc(O)cc1)N[C@H]1C[C@H](C(=O)O)Nc2cc(Cl)cc(Cl)c21, the IC50 rises from 0.018 µM to 0.03 µM (1.7-fold). The first is the more potent here.

Compared with O=C(NC1CCCCC1)N[C@H]1C[C@H](C(=O)O)Nc2cc(Cl)cc(Cl)c21, O=C(N[C@H]1C[C@H](C(=O)O)Nc2cc(Cl)cc(Cl)c21)C1CCCCC1 is 6.1-fold higher in IC50: 0.028 µM for the first, 0.17 µM for the second.

First: CN(C(=O)N[C@H]1C[C@H](C(=O)O)Nc2cc(Cl)cc(Cl)c21)c1ccccc1
Second: O=C(Cc1ccccc1)N[C@H]1C[C@H](C(=O)O)Nc2cc(Cl)cc(Cl)c21 (stereo in doubt; 16)
The IC50 of the first is 130-fold lower: 0.045 µM for the first, 5.9 µM for the second. The first is the more potent here.

Going from O=C(O)[C@H]1C[C@H](N2C(=O)c3ccccc3C2=O)c2c(Cl)cc(Cl)cc2N1 to Cc1ccccc1NC(=O)N[C@H]1C[C@H](C(=O)O)Nc2cc(Cl)cc(Cl)c21, the IC50 falls from 1.9 µM to 0.0073 µM (260-fold). The second is the more potent here.

Compared with Cc1cccc(NC(=O)N[C@H]2C[C@H](C(=O)O)Nc3cc(Cl)cc(Cl)c32)c1, Cc1ccc(NC(=O)N[C@H]2C[C@H](C(=O)O)Nc3cc(Cl)cc(Cl)c32)cc1 is 3.6-fold lower in IC50: 0.018 µM for the first, 0.005 µM for the second. The second is the more potent here.

N[C@@H](Cc1ccccc1)C(=O)N[C@@H]1C[C@@H](C(=O)O)Nc2cc(Cl)cc(Cl)c21 and N[C@H](Cc1ccccc1)C(=O)N[C@@H]1C[C@@H](C(=O)O)Nc2cc(Cl)cc(Cl)c21 cannot be ordered by IC50: greater than 100 µM for the first, greater than 1000 µM for the second.

O=C(Cc1cccs1)N[C@H]1C[C@H](C(=O)O)Nc2cc(Cl)cc(Cl)c21 and O=C(Cc1ccsc1)N[C@H]1C[C@H](C(=O)O)Nc2cc(Cl)cc(Cl)c21 are within 1.5-fold of each other in IC50: 0.032 µM for the first, 0.03 µM for the second.

Going from O=C(O)[C@H]1C[C@H](NC(=O)N2CCc3ccccc32)c2c(Cl)cc(Cl)cc2N1 to Cc1ccc(CC(=O)N[C@H]2C[C@H](C(=O)O)Nc3cc(Cl)cc(Cl)c32)cc1, the IC50 falls from 0.22 µM to 0.034 µM (6.5-fold). The second is the more potent here.

Compared with N[C@@H]1C[C@H](C(=O)O)Nc2cc(Cl)cc(Cl)c21, O=C(O)[C@H]1C[C@H](N2CCCC2=O)c2c(Cl)cc(Cl)cc2N1 is 310-fold lower in IC50: 14.1 µM for the first, 0.046 µM for the second.

First: N#CN/C(=N\[C@H]1C[C@H](C(=O)O)Nc2cc(Cl)cc(Cl)c21)Nc1ccccc1
Second: O=C(Cc1ccc(Cl)cc1)N[C@H]1C[C@H](C(=O)O)Nc2cc(Cl)cc(Cl)c21
The IC50 of the first is 11-fold higher: 0.58 µM for the first, 0.052 µM for the second.

Compared with O=C(CC1CCCCC1)N[C@H]1C[C@H](C(=O)O)Nc2cc(Cl)cc(Cl)c21, COc1ccc(CC(=O)N[C@H]2C[C@H](C(=O)O)Nc3cc(Cl)cc(Cl)c32)cc1 is 2.8-fold lower in IC50: 0.11 µM for the first, 0.039 µM for the second. The second is the more potent here.
